Patent publication US20240391862A1, “(1,4,5-TRISUBSTITUTED-1H-PYRAZOL-3-YL)OXY-2-ALKOXY ALKYL ACIDS AND THEIR DERIVATIVES, THEIR SALTS AND THEIR USE AS HERBICIDAL AGENTS” (Bayer AKtiengesellschaft, priority 2021, published 2024)

How the values were obtained:
Assay in all cases: Post-emergence herbicidal effect, greenhouse pot test
MATIN = assay type: in vivo, Tripleurospermum inodorum
Summary of the method: (§1)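 Weeds sown in sandy loam, greenhouse-grown 2–3 weeks, then sprayed at one-leaf stage with WP or EC formulations in water plus 0.5% additive at 600 l/ha. Rates 20 to 320 g/ha. Visual rating after about 3 weeks versus untreated controls (100% = plants dead, 0% = like control).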

PHBPU = assay type: in vivo, Ipomoea purpurea
Summary of the method: as §1

SETVI = assay type: in vivo, Setaria viridis
Summary of the method: as §1

AMARE = assay type: in vivo, Amaranthus retroflexus; conditions: visual rating about 3 weeks after treatment
Summary of the method: as §1

LOLRI = assay type: in vivo, Lolium rigidum
Summary of the method: as §1

ABUTH = assay type: in vivo, Abutilon theophrasti; conditions: visual rating about 3 weeks after treatment
Summary of the method: as §1

AVEFA = assay type: in vivo, Avena fatua; conditions: visual rating about 3 weeks after treatment
Summary of the method: as §1

POLCO = assay type: in vivo, Fallopia convolvulus
Summary of the method: as §1

KCHSC = assay type: in vivo
Summary of the method: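 Visual rating of activity against untreated plants (100% = plants died, 0% = no effect), done about 3 weeks after treatment. Compounds applied at 20–320 g/ha as aqueous spray (600 l/ha, 0.5% additive) from WP or EC formulations onto one-leaf-stage plants grown in sandy loam under greenhouse conditions.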

ALOMY = assay type: in vivo, Alopecurus myosuroides; conditions: visual rating about 3 weeks after treatment
Summary of the method: as §1

DIGSA = assay type: in vivo, Digitaria sanguinalis; conditions: 320 g/ha, visual rating about 3 weeks after treatment
Summary of the method: as §1

VIOTR = assay type: in vivo, Viola tricolor
Summary of the method: as §1

ECHCG = assay type: in vivo, Echinochloa crus-galli
Summary of the method: as §1

VERPE = assay type: in vivo, Veronica persica
Summary of the method: as §1

Compound: COC(=O)C(OC)Oc1nn(-c2ncccc2F)c(-c2cncc(F)c2)c1C1CC1 (centres unmarked) [Example I-73]
- pest or weed control at 80 g/ha (MATIN; Tripleurospermum inodorum, 504 h, 80 g/ha, read-out: Post-emergence effect against MATIN in %): 90%
- pest or weed control at 320 g/ha (MATIN; Tripleurospermum inodorum, 504 h, 320 g/ha, read-out: Post-emergence effect against MATIN in %): 90%
- pest or weed control at 20 g/ha (PHBPU; Ipomoea purpurea, 504 h, 20 g/ha, read-out: Post-emergence effect against PHBPU in %): 80%
- pest or weed control at 80 g/ha (PHBPU; Ipomoea purpurea, 504 h, 80 g/ha, read-out: Post-emergence effect against PHBPU in %): 90%
- pest or weed control at 320 g/ha (PHBPU; Ipomoea purpurea, 504 h, 320 g/ha, read-out: Post-emergence effect against PHBPU in %): 90%
- Post-emergence effect against SETVI in % (SETVI; 20 g/ha): 80%
- pest or weed control at 80 g/ha (SETVI; Setaria viridis, 504 h, 80 g/ha, read-out: Post-emergence effect against SETVI in %): 90%
- pest or weed control at 320 g/ha (SETVI; Setaria viridis, 504 h, 320 g/ha, read-out: Post-emergence effect against SETVI in %): 90%
- pest or weed control at 20 g/ha (AMARE; Amaranthus retroflexus, 504 h, 20 g/ha, read-out: Post-emergence effect against AMARE): 80%
- pest or weed control at 80 g/ha (AMARE; Amaranthus retroflexus, 504 h, 80 g/ha, read-out: Post-emergence effect against AMARE): 90%
- pest or weed control at 320 g/ha (AMARE; Amaranthus retroflexus, 504 h, 320 g/ha, read-out: Post-emergence effect against AMARE): 90%
- pest or weed control at 80 g/ha (LOLRI; Lolium rigidum, 504 h, 80 g/ha, read-out: Post-emergence effect against LOLRI in %): 90%
- pest or weed control at 320 g/ha (LOLRI; Lolium rigidum, 504 h, 320 g/ha, read-out: Post-emergence effect against LOLRI in %): 90%
- Post-emergence effect against ABUTH (ABUTH; 20 g/ha): 80%
- pest or weed control at 80 g/ha (ABUTH; Abutilon theophrasti, 504 h, 80 g/ha, read-out: Post-emergence effect against ABUTH): 80%
- pest or weed control at 320 g/ha (ABUTH; Abutilon theophrasti, 504 h, 320 g/ha, read-out: Post-emergence effect against ABUTH): 90%
- pest or weed control at 80 g/ha (AVEFA; Avena fatua, 504 h, 80 g/ha, read-out: Post-emergence effect against AVEFA): 90%
- pest or weed control at 320 g/ha (AVEFA; Avena fatua, 504 h, 320 g/ha, read-out: Post-emergence effect against AVEFA): 90%
- Post-emergence effect against POLCO in % (POLCO; 20 g/ha): 80%
- pest or weed control at 80 g/ha (POLCO; Fallopia convolvulus, 504 h, 80 g/ha, read-out: Post-emergence effect against POLCO in %): 80%
- pest or weed control at 320 g/ha (POLCO; Fallopia convolvulus, 504 h, 320 g/ha, read-out: Post-emergence effect against POLCO in %): 90%
- Post-emergence effect against KCHSC in % (KCHSC; 20 g/ha): 80%
- pest or weed control at 80 g/ha (KCHSC; 504 h, 80 g/ha, read-out: Post-emergence effect against KCHSC in %): 90%
- pest or weed control at 320 g/ha (KCHSC; 504 h, 320 g/ha, read-out: Post-emergence effect against KCHSC in %): 90%
- pest or weed control at 80 g/ha (ALOMY; Alopecurus myosuroides, 504 h, 80 g/ha, read-out: Post-emergence effect against ALOMY): 80%
- pest or weed control at 320 g/ha (ALOMY; Alopecurus myosuroides, 504 h, 320 g/ha, read-out: Post-emergence effect against ALOMY): 90%
- pest or weed control at 320 g/ha (DIGSA; Digitaria sanguinalis, 504 h, read-out: Post-emergence effect against DIGSA): 80%
- pest or weed control at 20 g/ha (VIOTR; Viola tricolor, 504 h, 20 g/ha, read-out: Post-emergence effect against VIOTR in %): 90%
- pest or weed control at 80 g/ha (VIOTR; Viola tricolor, 504 h, 80 g/ha, read-out: Post-emergence effect against VIOTR in %): 90%
- pest or weed control at 320 g/ha (VIOTR; Viola tricolor, 504 h, 320 g/ha, read-out: Post-emergence effect against VIOTR in %): 90%
- pest or weed control at 20 g/ha (ECHCG; Echinochloa crus-galli, 504 h, 20 g/ha, visual rating about 3 weeks after treatment, read-out: Post-emergence effect against ECHCG): 90%
- pest or weed control at 80 g/ha (ECHCG; Echinochloa crus-galli, 504 h, 80 g/ha, read-out: Post-emergence effect against ECHCG in %): 90%
- pest or weed control at 320 g/ha (ECHCG; Echinochloa crus-galli, 504 h, 320 g/ha, read-out: Post-emergence effect against ECHCG in %): 90%
- pest or weed control at 80 g/ha (VERPE; Veronica persica, 504 h, 80 g/ha, read-out: Post-emergence effect against VERPE in %): 90%
- pest or weed control at 320 g/ha (VERPE; Veronica persica, 504 h, 320 g/ha, read-out: Post-emergence effect against VERPE in %): 90%

Compound: COC(=O)CCOC(=O)C(OC)Oc1nn(-c2cc(F)ccc2F)c(-c2cncc(F)c2)c1C1CC1 (centres unmarked) [Example I-83]
- Post-emergence effect against MATIN in % (MATIN; 20 g/ha): 80%
- Post-emergence effect against MATIN in % (MATIN; 80 g/ha): 90%
- Post-emergence effect against MATIN in % (MATIN; 320 g/ha): 90%
- Post-emergence effect against PHBPU in % (PHBPU; 20 g/ha): 90%
- Post-emergence effect against PHBPU in % (PHBPU; 80 g/ha): 90%
- Post-emergence effect against PHBPU in % (PHBPU; 320 g/ha): 90%
- Post-emergence effect against SETVI in % (SETVI; 20 g/ha): 90%
- Post-emergence effect against SETVI in % (SETVI; 80 g/ha): 90%
- Post-emergence effect against SETVI in % (SETVI; 320 g/ha): 90%
- Post-emergence effect against AMARE (AMARE; 20 g/ha): 90%
- Post-emergence effect against AMARE (AMARE; 80 g/ha): 90%
- Post-emergence effect against AMARE (AMARE; 320 g/ha): 90%
- Post-emergence effect against LOLRI in % (LOLRI; 320 g/ha): 90%
- Post-emergence effect against ABUTH (ABUTH; 20 g/ha): 80%
- Post-emergence effect against ABUTH (ABUTH; 80 g/ha): 90%
- Post-emergence effect against ABUTH (ABUTH; 320 g/ha): 90%
- Post-emergence effect against AVEFA (AVEFA; 80 g/ha): 90%
- Post-emergence effect against AVEFA (AVEFA; 320 g/ha): 90%
- Post-emergence effect against POLCO in % (POLCO; 80 g/ha): 80%
- Post-emergence effect against POLCO in % (POLCO; 320 g/ha): 90%
- Post-emergence effect against KCHSC in % (KCHSC; 320 g/ha): 80%
- Post-emergence effect against ALOMY (ALOMY; 80 g/ha): 90%
- Post-emergence effect against ALOMY (ALOMY; 320 g/ha): 90%
- Post-emergence effect against DIGSA (DIGSA): 90%
- Post-emergence effect against VIOTR in % (VIOTR; 20 g/ha): 90%
- Post-emergence effect against VIOTR in % (VIOTR; 80 g/ha): 90%
- Post-emergence effect against VIOTR in % (VIOTR; 320 g/ha): 90%
- Post-emergence effect against ECHCG (ECHCG; 20 g/ha, visual rating about 3 weeks after treatment): 90%
- Post-emergence effect against ECHCG in % (ECHCG; 80 g/ha): 90%
- Post-emergence effect against ECHCG in % (ECHCG; 320 g/ha): 90%
- Post-emergence effect against VERPE in % (VERPE; 20 g/ha): 90%
- Post-emergence effect against VERPE in % (VERPE; 80 g/ha): 90%
- Post-emergence effect against VERPE in % (VERPE; 320 g/ha): 90%
